Source: patent US12290596B2, “Compositions and methods for the treatment of opioid overdose” (priority 2021, dated 2025)

Assay: Three-treatment crossover pharmacokinetics of IN nalmefene, three dosing regimens (Example 13)
Conditions: human, plasma, […]

C=C1CC[C@@]2(O)[C@H]3Cc4ccc(O)c5c4[C@@]2(CCN3CC2CC2)[C@H]1O5 [Nalmefene, 17-cyclopropylmethyl-4,5α-epoxy-6-methylenemorphinan-3,14-diol]
concentration at 0 h (other: intranasal (IN spray), 6 mg, Mean, Time 0.00, T3: 6 mg nalmefene HCl IN, two 0.1 mL sprays in one nostril): 0 ng/mL
concentration at 2.5 min (other: intranasal (IN spray), 6 mg, Mean, Time 0.0416, T3: 6 mg nalmefene HCl IN, two 0.1 mL sprays in one nostril): 1.35 ng/mL
concentration at […] (other: intranasal (IN spray), 6 mg, Mean, Time 0.0833, T3: 6 mg nalmefene HCl IN, two 0.1 mL sprays in one nostril): 5.05 ng/mL
concentration at […] (other: intranasal (IN spray), 6 mg, Mean, Time 0.166, T3: 6 mg nalmefene HCl IN, two 0.1 mL sprays in one nostril): 14.1 ng/mL
concentration at […] (other: intranasal (IN spray), 6 mg, Mean, Time 0.250, T3: 6 mg nalmefene HCl IN, two 0.1 mL sprays in one nostril): 16.9 ng/mL
concentration at […] (other: intranasal (IN spray), 6 mg, Mean, Time 0.333, T3: 6 mg nalmefene HCl IN, two 0.1 mL sprays in one nostril): 14.6 ng/mL
concentration at […] (other: intranasal (IN spray), 6 mg, Mean, Time 0.750, T3: 6 mg nalmefene HCl IN, two 0.1 mL sprays in one nostril): 9.92 ng/mL
concentration at 1 h (other: intranasal (IN spray), 6 mg, Mean, Time 1.00, T3: 6 mg nalmefene HCl IN, two 0.1 mL sprays in one nostril): 9.59 ng/mL
concentration at 2 h (other: intranasal (IN spray), 6 mg, Mean, Time 2.00, T3: 6 mg nalmefene HCl IN, two 0.1 mL sprays in one nostril): 8.86 ng/mL
concentration at 3 h (other: intranasal (IN spray), 6 mg, Mean, Time 3.00, T3: 6 mg nalmefene HCl IN, two 0.1 mL sprays in one nostril): 6.9 ng/mL
concentration at 4 h (other: intranasal (IN spray), 6 mg, Mean, Time 4.00, T3: 6 mg nalmefene HCl IN, two 0.1 mL sprays in one nostril): 5.37 ng/mL
concentration at 6 h (other: intranasal (IN spray), 6 mg, Mean, Time 6.00, T3: 6 mg nalmefene HCl IN, two 0.1 mL sprays in one nostril): 3.69 ng/mL
concentration at 8 h (other: intranasal (IN spray), 6 mg, Mean, Time 8.00, T3: 6 mg nalmefene HCl IN, two 0.1 mL sprays in one nostril): 2.69 ng/mL
concentration at 12 h (other: intranasal (IN spray), 6 mg, Mean, Time 12.0, T3: 6 mg nalmefene HCl IN, two 0.1 mL sprays in one nostril): 1.93 ng/mL
concentration at 18 h (other: intranasal (IN spray), 6 mg, Mean, Time 18.0, T3: 6 mg nalmefene HCl IN, two 0.1 mL sprays in one nostril): 1.11 ng/mL
concentration at 24 h (other: intranasal (IN spray), 6 mg, Mean, Time 24.0, T3: 6 mg nalmefene HCl IN, two 0.1 mL sprays in one nostril): 0.792 ng/mL
concentration at 48 h (other: intranasal (IN spray), 6 mg, Mean, Time 48.0, T3: 6 mg nalmefene HCl IN, two 0.1 mL sprays in one nostril): 0.182 ng/mL
concentration at 0 h (other: intranasal (IN spray), 6 mg, Median, Time 0.00, T3: 6 mg nalmefene HCl IN, two 0.1 mL sprays in one nostril): 0 ng/mL
concentration at 2.5 min (other: intranasal (IN spray), 6 mg, Median, Time 0.0416, T3: 6 mg nalmefene HCl IN, two 0.1 mL sprays in one nostril): 0.746 ng/mL
concentration at […] (other: intranasal (IN spray), 6 mg, Median, Time 0.0833, T3: 6 mg nalmefene HCl IN, two 0.1 mL sprays in one nostril): 2.58 ng/mL
concentration at […] (other: intranasal (IN spray), 6 mg, Median, Time 0.125, T3: 6 mg nalmefene HCl IN, two 0.1 mL sprays in one nostril): 4.96 ng/mL
concentration at […] (other: intranasal (IN spray), 6 mg, Median, Time 0.166, T3: 6 mg nalmefene HCl IN, two 0.1 mL sprays in one nostril): 8.55 ng/mL
concentration at […] (other: intranasal (IN spray), 6 mg, Median, Time 0.250, T3: 6 mg nalmefene HCl IN, two 0.1 mL sprays in one nostril): 12.8 ng/mL
concentration at […] (other: intranasal (IN spray), 6 mg, Median, Time 0.750, T3: 6 mg nalmefene HCl IN, two 0.1 mL sprays in one nostril): 9.69 ng/mL
concentration at 1 h (other: intranasal (IN spray), 6 mg, Median, Time 1.00, T3: 6 mg nalmefene HCl IN, two 0.1 mL sprays in one nostril): 8.88 ng/mL
concentration at 2 h (other: intranasal (IN spray), 6 mg, Median, Time 2.00, T3: 6 mg nalmefene HCl IN, two 0.1 mL sprays in one nostril): 8.6 ng/mL
concentration at 3 h (other: intranasal (IN spray), 6 mg, Median, Time 3.00, T3: 6 mg nalmefene HCl IN, two 0.1 mL sprays in one nostril): 6.35 ng/mL
concentration at 4 h (other: intranasal (IN spray), 6 mg, Median, Time 4.00, T3: 6 mg nalmefene HCl IN, two 0.1 mL sprays in one nostril): 4.89 ng/mL
concentration at 6 h (other: intranasal (IN spray), 6 mg, Median, Time 6.00, T3: 6 mg nalmefene HCl IN, two 0.1 mL sprays in one nostril): 3.51 ng/mL
concentration at 8 h (other: intranasal (IN spray), 6 mg, Median, Time 8.00, T3: 6 mg nalmefene HCl IN, two 0.1 mL sprays in one nostril): 2.46 ng/mL
concentration at 12 h (other: intranasal (IN spray), 6 mg, Median, Time 12.0, T3: 6 mg nalmefene HCl IN, two 0.1 mL sprays in one nostril): 1.82 ng/mL
concentration at 18 h (other: intranasal (IN spray), 6 mg, Median, Time 18.0, T3: 6 mg nalmefene HCl IN, two 0.1 mL sprays in one nostril): 1.12 ng/mL
concentration at 24 h (other: intranasal (IN spray), 6 mg, Median, Time 24.0, T3: 6 mg nalmefene HCl IN, two 0.1 mL sprays in one nostril): 0.729 ng/mL
concentration at 48 h (other: intranasal (IN spray), 6 mg, Median, Time 48.0, T3: 6 mg nalmefene HCl IN, two 0.1 mL sprays in one nostril): 0.176 ng/mL
concentration at 0 h (other: intranasal (IN) spray, 3 mg, Max, T1 (3 mg IN, one spray in one nostril), time 0.00): 0 ng/mL
concentration at 2.5 min (other: intranasal (IN) spray, 3 mg, Max, T1 (3 mg IN, one spray in one nostril), time 0.0416): 0.766 ng/mL
concentration at […] (other: intranasal (IN) spray, 3 mg, Max, T1 (3 mg IN, one spray in one nostril), time 0.125): 16.9 ng/mL
concentration at […] (other: intranasal (IN) spray, 3 mg, Max, T1 (3 mg IN, one spray in one nostril), time 0.166): 20.4 ng/mL
concentration at […] (other: intranasal (IN) spray, 3 mg, Max, T1 (3 mg IN, one spray in one nostril), time 0.250): 22.1 ng/mL
concentration at […] (other: intranasal (IN) spray, 3 mg, Max, T1 (3 mg IN, one spray in one nostril), time 0.333): 20.2 ng/mL
concentration at 1 h (other: intranasal (IN) spray, 3 mg, Max, T1 (3 mg IN, one spray in one nostril), time 1.00): 9.54 ng/mL
concentration at 2 h (other: intranasal (IN) spray, 3 mg, Max, T1 (3 mg IN, one spray in one nostril), time 2.00): 7.64 ng/mL
concentration at 3 h (other: intranasal (IN) spray, 3 mg, Mean, T1 (3 mg IN, one spray in one nostril), time 3.00): 3.7 ng/mL
concentration at 4 h (other: intranasal (IN) spray, 3 mg, Mean, T1 (3 mg IN, one spray in one nostril), time 4.00): 2.99 ng/mL
concentration at 6 h (other: intranasal (IN) spray, 3 mg, Mean, T1 (3 mg IN, one spray in one nostril), time 6.00): 2.06 ng/mL
concentration at 8 h (other: intranasal (IN) spray, 3 mg, Mean, T1 (3 mg IN, one spray in one nostril), time 8.00): 1.44 ng/mL
concentration at 12 h (other: intranasal (IN) spray, 3 mg, Mean, T1 (3 mg IN, one spray in one nostril), time 12.0): 0.992 ng/mL
concentration at 18 h (other: intranasal (IN) spray, 3 mg, Mean, T1 (3 mg IN, one spray in one nostril), time 18.0): 0.591 ng/mL
concentration at 24 h (other: intranasal (IN) spray, 3 mg, Mean, T1 (3 mg IN, one spray in one nostril), time 24.0): 0.412 ng/mL
concentration at 48 h (other: intranasal (IN) spray, 3 mg, Mean, T1 (3 mg IN, one spray in one nostril), time 48.0): 0.0942 ng/mL
concentration at 2.5 min (other: intranasal (IN) spray, 3 mg, Median, T1 (3 mg IN, one spray in one nostril), time 0.0416): 0.362 ng/mL
concentration at […] (other: intranasal (IN) spray, 3 mg, Median, T1 (3 mg IN, one spray in one nostril), time 0.0833): 1.29 ng/mL
concentration at […] (other: intranasal (IN) spray, 3 mg, Median, T1 (3 mg IN, one spray in one nostril), time 0.125): 3.65 ng/mL
concentration at […] (other: intranasal (IN) spray, 3 mg, Median, T1 (3 mg IN, one spray in one nostril), time 0.166): 6.28 ng/mL
concentration at […] (other: intranasal (IN) spray, 3 mg, Median, T1 (3 mg IN, one spray in one nostril), time 0.250): 8.04 ng/mL
concentration at […] (other: intranasal (IN) spray, 3 mg, Median, T1 (3 mg IN, one spray in one nostril), time 0.333): 8.07 ng/mL
concentration at […] (other: intranasal (IN) spray, 3 mg, Median, T1 (3 mg IN, one spray in one nostril), time 0.750): 5.85 ng/mL
concentration at 2 h (other: intranasal (IN) spray, 3 mg, Median, T1 (3 mg IN, one spray in one nostril), time 2.00): 4.62 ng/mL
concentration at 3 h (other: intranasal (IN) spray, 3 mg, Min, T1 (3 mg IN, one spray in one nostril), time 3.00): 2.16 ng/mL
concentration at 4 h (other: intranasal (IN) spray, 3 mg, Min, T1 (3 mg IN, one spray in one nostril), time 4.00): 1.97 ng/mL
concentration at 0 h (other: intranasal, 3 mg, Mean, T1 (3 mg IN, one spray in one nostril), time 0.00): 0 ng/mL
concentration at 2.5 min (other: intranasal, 3 mg, Mean, T1 (3 mg IN, one spray in one nostril), time 0.0416): 0.353 ng/mL
concentration at […] (other: intranasal, 3 mg, Mean, T1 (3 mg IN, one spray in one nostril), time 0.0833): 2.38 ng/mL
concentration at […] (other: intranasal, 3 mg, Mean, T1 (3 mg IN, one spray in one nostril), time 0.125): 5.1 ng/mL
concentration at […] (other: intranasal, 3 mg, Mean, T1 (3 mg IN, one spray in one nostril), time 0.166): 7.78 ng/mL
concentration at […] (other: intranasal, 3 mg, Mean, T1 (3 mg IN, one spray in one nostril), time 0.250): 9.17 ng/mL
concentration at […] (other: intranasal, 3 mg, Mean, T1 (3 mg IN, one spray in one nostril), time 0.333): 8.79 ng/mL
concentration at […] (other: intranasal, 3 mg, Mean, T1 (3 mg IN, one spray in one nostril), time 0.750): 5.99 ng/mL
concentration at 1 h (other: intranasal, 3 mg, Mean, T1 (3 mg IN, one spray in one nostril), time 1.00): 5.47 ng/mL
concentration at 2 h (other: intranasal, 3 mg, Mean, T1 (3 mg IN, one spray in one nostril), time 2.00): 4.99 ng/mL
concentration at 0 h (other: intranasal, 3 mg, Median, T1 (3 mg IN, one spray in one nostril), time 0.00): 0 ng/mL
concentration at 1 h (other: intranasal, 3 mg, Median, T1 (3 mg IN, one spray in one nostril), time 1.00): 5.11 ng/mL
concentration at 0 h (other: intranasal, 3 mg, Min, T1 (3 mg IN, one spray in one nostril), time 0.00): 0 ng/mL
concentration at 2.5 min (other: intranasal, 3 mg, Min, T1 (3 mg IN, one spray in one nostril), time 0.0416): 0 ng/mL
concentration at […] (other: intranasal, 3 mg, Min, T1 (3 mg IN, one spray in one nostril), time 0.0833): 0.319 ng/mL
concentration at […] (other: intranasal, 3 mg, Min, T1 (3 mg IN, one spray in one nostril), time 0.125): 0.642 ng/mL
concentration at […] (other: intranasal, 3 mg, Min, T1 (3 mg IN, one spray in one nostril), time 0.166): 1.09 ng/mL
concentration at […] (other: intranasal, 3 mg, Min, T1 (3 mg IN, one spray in one nostril), time 0.250): 1.88 ng/mL
concentration at […] (other: intranasal, 3 mg, Min, T1 (3 mg IN, one spray in one nostril), time 0.333): 1.97 ng/mL
concentration at […] (other: intranasal, 3 mg, Min, T1 (3 mg IN, one spray in one nostril), time 0.750): 2.52 ng/mL
concentration at 2 h (other: intranasal, 3 mg, Min, T1 (3 mg IN, one spray in one nostril), time 2.00): 3.28 ng/mL
concentration at 0 h (other: intranasal, 6 mg, individual subject, Time 0.00, T3: 6 mg nalmefene HCl IN, two 0.1 mL sprays in one nostril): 0 ng/mL
